Key:
Format in all cases: cell-based
[1] = system: E.coli; assay: Quantitative germ count (re-isolation, surface method) after inoculating the test preparation; conditions: Ausgangskeimzahl 2,7 x 10^5 KBE/ml
[2] = system: S.aureus; assay: as above; conditions: Ausgangskeimzahl 2,6 x 10^5 KBE/ml
How it was run: (§1)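 Test preparations were contaminated with ca. 10^5 CFU/ml of each strain, then sampled at 2, 6, 8, 24, 32, 48 and 72 h. Cells were centrifuged 10 min at 3000 rpm, washed in NaCl-peptone buffer, resuspended and spiral-plated on Caso agar at 33±2°C for max. 4 days. Detection limit was 100 CFU/ml.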

[3] = system: Sc. pneumoniae; assay: as above; conditions: Ausgangskeimzahl 3,7 x 10^5 KBE/ml
How it was run: as §1

[4] = system: H.influenzae; assay: as above; conditions: Ausgangskeimzahl 2,8 x 10^5 KBE/ml
How it was run: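 Surviving germs were counted by the surface method: an aliquot was spiral-plated on Kochblut-Agar and incubated at 33±2°C for max. 4 Tage, giving re-isolated counts in KBE/ml with a detection limit of 100 KBE/ml. Initial germ counts were also set by spiral-plater surface plating. The H. influenzae strain was pretested biochemically for identity and purity.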

[5] = system: P.aeruginosa; assay: Qualitative examination: enrichment of the inoculated test preparation in broth
How it was run: (§2)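 Test preparations (5 ml) inoculated with ~10^5 CFU/ml; after 2, 6, 8, 24, 32, 48 and 72 h, centrifuged, washed and resuspended in NaCl-peptone buffer. 2 ml enriched in 20 ml Caso broth (Fildes medium for H. influenzae), incubated up to 4 days at 33±2°C; negative enrichment indicates elimination of inoculum.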

[6] = system: S.epidermidis; assay: Quantitative germ count (re-isolation, surface method) after inoculating the test preparation; conditions: Ausgangskeimzahl 2,1 x 10^5 KBE/ml
How it was run: as §1

[7] = system: P.aeruginosa; assay: as above; conditions: Ausgangskeimzahl 2,7 x 10^5 KBE/ml
How it was run: as §1

[8] = system: E.coli; assay: Qualitative examination: enrichment of the inoculated test preparation in broth
How it was run: as §2

[9] = system: S.aureus; assay: as above
How it was run: as §2

[10] = system: S.epidermidis; assay: as above
How it was run: as §2

[11] = system: Sc. pneumoniae; assay: as above
How it was run: as §2

## Benzalkoniumchlorid [Benzalkoniumchlorid 0,0025 Gew.-%]
[1]; 2 h after inoculation
  Ergebnis der Reisolierung (in KBE/ml): <100 KBE/ml
[1]; 4 h after inoculation
  Ergebnis der Reisolierung (in KBE/ml): <100 KBE/ml
[1]; 6 h after inoculation
  Ergebnis der Reisolierung (in KBE/ml): <100 KBE/ml
[1]; 8 h after inoculation
  Ergebnis der Reisolierung (in KBE/ml): <100 KBE/ml
[1]; 24 h after inoculation
  Ergebnis der Reisolierung (in KBE/ml): <100 KBE/ml
[1]; 32 h after inoculation
  Ergebnis der Reisolierung (in KBE/ml): <100 KBE/ml
[1]; 48 h after inoculation
  Ergebnis der Reisolierung (in KBE/ml): <100 KBE/ml
[1]; 72 h after inoculation
  Ergebnis der Reisolierung (in KBE/ml): <100 KBE/ml
[2]; 2 h after inoculation
  Ergebnis der Reisolierung (in KBE/ml): <100 KBE/ml
[2]; 4 h after inoculation
  Ergebnis der Reisolierung (in KBE/ml): <100 KBE/ml
[2]; 6 h after inoculation
  Ergebnis der Reisolierung (in KBE/ml): <100 KBE/ml
[2]; 8 h after inoculation
  Ergebnis der Reisolierung (in KBE/ml): <100 KBE/ml
[2]; 24 h after inoculation
  Ergebnis der Reisolierung (in KBE/ml): <100 KBE/ml
[2]; 32 h after inoculation
  Ergebnis der Reisolierung (in KBE/ml): <100 KBE/ml
[2]; 48 h after inoculation
  Ergebnis der Reisolierung (in KBE/ml): <100 KBE/ml
[2]; 72 h after inoculation
  Ergebnis der Reisolierung (in KBE/ml): <100 KBE/ml
[3]; 2 h after inoculation
  Ergebnis der Reisolierung (in KBE/ml): <100 KBE/ml
[3]; 4 h after inoculation
  Ergebnis der Reisolierung (in KBE/ml): <100 KBE/ml
[3]; 6 h after inoculation
  Ergebnis der Reisolierung (in KBE/ml): <100 KBE/ml
[3]; 8 h after inoculation
  Ergebnis der Reisolierung (in KBE/ml): <100 KBE/ml
[3]; 24 h after inoculation
  Ergebnis der Reisolierung (in KBE/ml): <100 KBE/ml
[3]; 32 h after inoculation
  Ergebnis der Reisolierung (in KBE/ml): <100 KBE/ml
[3]; 48 h after inoculation
  Ergebnis der Reisolierung (in KBE/ml): <100 KBE/ml
[3]; 72 h after inoculation
  Ergebnis der Reisolierung (in KBE/ml): <100 KBE/ml
[4]; 2 h after inoculation
  Ergebnis der Reisolierung (in KBE/ml): <100 KBE/ml
[4]; 4 h after inoculation
  Ergebnis der Reisolierung (in KBE/ml): <100 KBE/ml
[4]; 6 h after inoculation
  Ergebnis der Reisolierung (in KBE/ml): <100 KBE/ml
[4]; 8 h after inoculation
  Ergebnis der Reisolierung (in KBE/ml): <100 KBE/ml
[4]; 24 h after inoculation
  Ergebnis der Reisolierung (in KBE/ml): <100 KBE/ml
[4]; 32 h after inoculation
  Ergebnis der Reisolierung (in KBE/ml): <100 KBE/ml
[4]; 48 h after inoculation
  Ergebnis der Reisolierung (in KBE/ml): <100 KBE/ml
[4]; 72 h after inoculation
  Ergebnis der Reisolierung (in KBE/ml): <100 KBE/ml
[5]; 2 h after inoculation
  Ergebnis der Reisolierung qualitiativ (+/-) nach Anreicherung: - -
[5]; 4 h after inoculation
  Ergebnis der Reisolierung qualitiativ (+/-) nach Anreicherung: -
[5]; 6 h after inoculation
  Ergebnis der Reisolierung qualitiativ (+/-) nach Anreicherung: -
[5]; 8 h after inoculation
  Ergebnis der Reisolierung qualitiativ (+/-) nach Anreicherung: -
[5]; 24 h after inoculation
  Ergebnis der Reisolierung qualitiativ (+/-) nach Anreicherung: -
[5]; 32 h after inoculation
  Ergebnis der Reisolierung qualitiativ (+/-) nach Anreicherung: -
[5]; 48 h after inoculation
  Ergebnis der Reisolierung qualitiativ (+/-) nach Anreicherung: -
[5]; 72 h after inoculation
  Ergebnis der Reisolierung qualitiativ (+/-) nach Anreicherung: -
[6]; 2 h after inoculation
  Ergebnis der Reisolierung (in KBE/ml): <100 KBE/ml
[6]; 4 h after inoculation
  Ergebnis der Reisolierung (in KBE/ml): <100 KBE/ml
[6]; 6 h after inoculation
  Ergebnis der Reisolierung (in KBE/ml): <100 KBE/ml
[6]; 8 h after inoculation
  Ergebnis der Reisolierung (in KBE/ml): <100 KBE/ml
[6]; 24 h after inoculation
  Ergebnis der Reisolierung (in KBE/ml): <100 KBE/ml
[6]; 32 h after inoculation
  Ergebnis der Reisolierung (in KBE/ml): <100 KBE/ml
[6]; 48 h after inoculation
  Ergebnis der Reisolierung (in KBE/ml): <100 KBE/ml
[6]; 72 h after inoculation
  Ergebnis der Reisolierung (in KBE/ml): <100 KBE/ml
[7]; 2 h after inoculation
  Ergebnis der Reisolierung (in KBE/ml): <100 KBE/ml
[7]; 4 h after inoculation
  Ergebnis der Reisolierung (in KBE/ml): <100 KBE/ml
[7]; 6 h after inoculation
  Ergebnis der Reisolierung (in KBE/ml): <100 KBE/ml
[7]; 8 h after inoculation
  Ergebnis der Reisolierung (in KBE/ml): <100 KBE/ml
[7]; 24 h after inoculation
  Ergebnis der Reisolierung (in KBE/ml): <100 KBE/ml
[7]; 32 h after inoculation
  Ergebnis der Reisolierung (in KBE/ml): <100 KBE/ml
[7]; 48 h after inoculation
  Ergebnis der Reisolierung (in KBE/ml): <100 KBE/ml
[7]; 72 h after inoculation
  Ergebnis der Reisolierung (in KBE/ml): <100 KBE/ml
[8]; 2 h after inoculation
  Ergebnis der Reisolierung qualitiativ (+/-) nach Anreicherung: -
[8]; 4 h after inoculation
  Ergebnis der Reisolierung qualitiativ (+/-) nach Anreicherung: -
[8]; 6 h after inoculation
  Ergebnis der Reisolierung qualitiativ (+/-) nach Anreicherung: -
[8]; 8 h after inoculation
  Ergebnis der Reisolierung qualitiativ (+/-) nach Anreicherung: -
[8]; 24 h after inoculation
  Ergebnis der Reisolierung qualitiativ (+/-) nach Anreicherung: -
[8]; 32 h after inoculation
  Ergebnis der Reisolierung qualitiativ (+/-) nach Anreicherung: -
[8]; 48 h after inoculation
  Ergebnis der Reisolierung qualitiativ (+/-) nach Anreicherung: -
[8]; 72 h after inoculation
  Ergebnis der Reisolierung qualitiativ (+/-) nach Anreicherung: -
[9]; 2 h after inoculation
  Ergebnis der Reisolierung qualitiativ (+/-) nach Anreicherung: -
[9]; 4 h after inoculation
  Ergebnis der Reisolierung qualitiativ (+/-) nach Anreicherung: -
[9]; 6 h after inoculation
  Ergebnis der Reisolierung qualitiativ (+/-) nach Anreicherung: -
[9]; 8 h after inoculation
  Ergebnis der Reisolierung qualitiativ (+/-) nach Anreicherung: -
[9]; 24 h after inoculation
  Ergebnis der Reisolierung qualitiativ (+/-) nach Anreicherung: -
[9]; 32 h after inoculation
  Ergebnis der Reisolierung qualitiativ (+/-) nach Anreicherung: -
[9]; 48 h after inoculation
  Ergebnis der Reisolierung qualitiativ (+/-) nach Anreicherung: -
[9]; 72 h after inoculation
  Ergebnis der Reisolierung qualitiativ (+/-) nach Anreicherung: -
[10]; 2 h after inoculation
  Ergebnis der Reisolierung qualitiativ (+/-) nach Anreicherung: - -
[10]; 4 h after inoculation
  Ergebnis der Reisolierung qualitiativ (+/-) nach Anreicherung: -
[10]; 6 h after inoculation
  Ergebnis der Reisolierung qualitiativ (+/-) nach Anreicherung: -
[10]; 8 h after inoculation
  Ergebnis der Reisolierung qualitiativ (+/-) nach Anreicherung: -
[10]; 24 h after inoculation
  Ergebnis der Reisolierung qualitiativ (+/-) nach Anreicherung: -
[10]; 32 h after inoculation
  Ergebnis der Reisolierung qualitiativ (+/-) nach Anreicherung: -
[10]; 48 h after inoculation
  Ergebnis der Reisolierung qualitiativ (+/-) nach Anreicherung: -
[10]; 72 h after inoculation
  Ergebnis der Reisolierung qualitiativ (+/-) nach Anreicherung: -
[11]; 2 h after inoculation
  Ergebnis der Reisolierung qualitiativ (+/-) nach Anreicherung: -
[11]; 4 h after inoculation
  Ergebnis der Reisolierung qualitiativ (+/-) nach Anreicherung: -
[11]; 6 h after inoculation
  Ergebnis der Reisolierung qualitiativ (+/-) nach Anreicherung: -
[11]; 8 h after inoculation
  Ergebnis der Reisolierung qualitiativ (+/-) nach Anreicherung: -
[11]; 24 h after inoculation
  Ergebnis der Reisolierung qualitiativ (+/-) nach Anreicherung: -
[11]; 32 h after inoculation
  Ergebnis der Reisolierung qualitiativ (+/-) nach Anreicherung: -
[11]; 48 h after inoculation
  Ergebnis der Reisolierung qualitiativ (+/-) nach Anreicherung: -
[11]; 72 h after inoculation
  Ergebnis der Reisolierung qualitiativ (+/-) nach Anreicherung: -
